Where a name gives a salt, the structure may show the parent alone.
Experiments:
Format in all cases: biochemical
human LSD1(171-852) = target: T1, human LSD1(171-852) (Homo sapiens, UniProt O60341); assay: Measurement of LSD1 inhibitory activity (time-resolved fluorescence, biotin-histone H3 mono methylated K4 peptide); conditions: read-out: LSD1 IC50 value
T1 construct: to give hLSD1(171-852) purified product; made in house; host or cells: Escherichia coli C43(DE3) pLysS

MAO-A = target: T2, MAO-A (Homo sapiens, UniProt P21397); assay: Measurement of MAO-A inhibitory activity (MAO-Glo Assay)
T2 construct: purchased Sigma-Aldrich Co. LLC
T2 sequence (P21397 1-527): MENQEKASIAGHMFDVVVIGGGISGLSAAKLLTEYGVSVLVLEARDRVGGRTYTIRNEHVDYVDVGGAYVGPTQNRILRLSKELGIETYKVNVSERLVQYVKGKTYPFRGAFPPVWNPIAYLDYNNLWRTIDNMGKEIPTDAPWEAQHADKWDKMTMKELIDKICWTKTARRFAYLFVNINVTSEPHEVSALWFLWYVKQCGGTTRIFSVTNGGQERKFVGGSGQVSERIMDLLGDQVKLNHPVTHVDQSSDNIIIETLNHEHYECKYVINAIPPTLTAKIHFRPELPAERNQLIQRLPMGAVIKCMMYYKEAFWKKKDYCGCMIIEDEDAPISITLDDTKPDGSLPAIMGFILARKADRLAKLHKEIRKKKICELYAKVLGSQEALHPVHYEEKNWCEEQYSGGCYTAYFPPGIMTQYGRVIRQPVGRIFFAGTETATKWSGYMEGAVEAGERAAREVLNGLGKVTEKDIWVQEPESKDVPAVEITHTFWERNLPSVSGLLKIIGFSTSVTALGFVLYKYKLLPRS
In short: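 Luminescent MAO-Glo read-out: % inhibition computed from counts relative to enzyme-only control and enzyme-free blank. Compound and 400 ng MAO-A in HEPES pH 7.5 with 5% glycerol stood 10 min at room temperature before MAO substrate (160 μM stock) started a 60 min reaction.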

MAO-B = target: T3, MAO-B (Homo sapiens, UniProt P27338); assay: Measurement of MAO-B inhibitory activity (MAO-Glo Assay)
T3 construct: purchased Sigma-Aldrich Co. LLC
T3 sequence (P27338 1-520): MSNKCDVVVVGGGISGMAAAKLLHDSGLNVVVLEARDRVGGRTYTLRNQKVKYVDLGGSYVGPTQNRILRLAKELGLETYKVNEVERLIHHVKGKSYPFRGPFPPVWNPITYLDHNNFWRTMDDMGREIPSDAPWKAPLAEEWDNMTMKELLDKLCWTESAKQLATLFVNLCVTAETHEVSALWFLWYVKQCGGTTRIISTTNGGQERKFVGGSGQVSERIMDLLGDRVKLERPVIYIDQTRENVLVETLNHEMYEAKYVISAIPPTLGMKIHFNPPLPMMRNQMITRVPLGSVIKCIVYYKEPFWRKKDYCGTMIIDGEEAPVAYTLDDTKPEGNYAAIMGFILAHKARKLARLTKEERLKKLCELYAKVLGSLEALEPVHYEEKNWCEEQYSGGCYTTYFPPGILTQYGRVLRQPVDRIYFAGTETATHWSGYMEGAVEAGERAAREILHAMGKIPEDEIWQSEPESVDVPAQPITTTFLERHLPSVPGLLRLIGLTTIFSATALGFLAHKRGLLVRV
In short: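 Percent inhibition was calculated from luciferin-based luminescence, corrected with a blank lacking enzyme and a control lacking compound. The reaction ran 60 min at room temperature after adding MAO substrate (16 µM as added). This followed a 10 min compound–enzyme preincubation in HEPES pH 7.5 buffer.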

IC50 (human LSD1(171-852)) [µM]	IC50 (MAO-A) [µM]	IC50 (MAO-B) [µM]	SMILES
< 0.1	> 10	> 10	O=C(Nc1ccc([C@@H]2C[C@H]2NCC2CC2)cc1)c1ccc(C(F)(F)F)cc1 (relative stereo) [Example 69, N-(4-{trans-2-[(cyclopropylmethyl)amino]cyclopropyl}phenyl)-4-(trifluoromethyl)benzamide hydrochloride]
< 0.1	> 10	> 10	CC(C)(C)c1ccc(C(=O)Nc2ccc([C@@H]3C[C@H]3NCC3CC3)cc2)cc1 (relative stereo) [Example 70, 4-tert-butyl-N-(4-{trans-2-[(cyclopropylmethyl)amino]cyclopropyl}phenyl)benzamide hydrochloride]
< 0.1	> 10	> 10	O=C(Nc1ccc([C@@H]2C[C@H]2NCC2CC2)cc1)c1ccc(OCc2ccccc2)cc1 (relative stereo) [Example 71, 4-(benzyloxy)-N-(4-{trans-2-[(cyclopropylmethyl)amino]cyclopropyl}phenyl)benzamide hydrochloride]
< 0.1	3.1	> 10	O=C(Nc1ccc([C@@H]2C[C@H]2NCc2cscn2)cc1)c1cccc(C(F)(F)F)c1 (relative stereo) [Example 72, N-(4-{trans-2-[(1,3-thiazol-4-ylmethyl)amino]cyclopropyl}phenyl)-3-(trifluoromethyl)benzamide dihydrochloride]
< 0.1	> 10	> 10	O=C(Nc1ccc([C@@H]2C[C@H]2NC2CCN(Cc3ccccc3)CC2)cc1)c1cccc(C(F)(F)F)c1 (relative stereo) [Example 74, N-(4-{trans-2-[(1-benzylpiperidin-4-yl)amino]cyclopropyl}phenyl)-3-(trifluoromethyl)benzamide dihydrochloride]
< 0.1	> 10	> 10	O=C(Nc1ccc([C@@H]2C[C@H]2NC2CCN(c3ccccc3)CC2)cc1)c1cccc(C(F)(F)F)c1 (relative stereo) [Example 75, N-(4-{trans-2-[(1-phenylpiperidin-4-yl)amino]cyclopropyl}phenyl)-3-(trifluoromethyl)benzamide dihydrochloride]
< 0.1	9.9	> 10	O=C(Nc1ccc([C@@H]2C[C@H]2NC2CCNC(c3ccccc3)C2)cc1)c1cccc(C(F)(F)F)c1 (relative stereo) [Example 77, N-(4-{trans-2-[(2-phenylpiperidin-4-yl)amino]cyclopropyl}phenyl)-3-(trifluoromethyl)benzamide dihydrochloride]
< 0.1	> 10	> 10	O=C(Nc1ccc([C@@H]2C[C@H]2NCC2CC2)cc1)c1ccc(-c2ccccc2Cl)cc1 (relative stereo) [Example 78, 2′-chloro-N-(4-{trans-2-[(cyclopropylmethyl)amino]cyclopropyl}phenyl)biphenyl-4-carboxamide hydrochloride]
< 0.1	> 10	> 10	O=C(Nc1ccc(C(=O)Nc2ccc([C@@H]3C[C@H]3NCC3CC3)cc2)cc1)c1ccccc1 (relative stereo) [Example 80, N-(4-{trans-2-[(cyclopropylmethyl)amino]cyclopropyl}phenyl)-4-[(phenylcarbonyl)amino]benzamide hydrochloride]
< 0.1	> 10	> 10	Cc1cc(NC(=O)c2ccccc2)ccc1[C@@H]1C[C@H]1NCC1CC1 (relative stereo) [Example 82, N-(4-{trans-2-[(cyclopropylmethyl)amino]cyclopropyl}-3-methylphenyl)benzamide hydrochloride]
< 0.1	> 10	> 10	CN(C)c1cccc(C(=O)Nc2ccc([C@@H]3C[C@H]3NCC3CC3)cc2)c1 (relative stereo) [Example 83, N-(4-{trans-2-[(cyclopropylmethyl)amino]cyclopropyl}phenyl)-3-(dimethylamino)benzamide bis(trifluoroacetate)]
< 0.1	> 10	> 10	CN(C)c1ccc(C(=O)Nc2ccc([C@@H]3C[C@H]3NCC3CC3)cc2)cc1 (relative stereo) [Example 84, N-(4-{trans-2-[(cyclopropylmethyl)amino]cyclopropyl}-phenyl)-4-(dimethylamino)-benzamide]
< 0.1	9.1	4.9	O=C(Nc1ccc([C@@H]2C[C@H]2NCC2CC2)cc1)c1ccc2c(c1)CCCC2 (relative stereo) [Example 85, N-(4-{trans-2-[(cyclopropylmethyl)amino]cyclopropyl}-phenyl)-5,6,7,8-tetrahydronaphtha-lene-2-carboxamide]
1	> 10	> 10	CC1=NN(c2ccc(C(=O)Nc3ccc([C@@H]4C[C@H]4NCC4CC4)cc3)cc2)C(=O)C1 (relative stereo) [Example 86, N-(4-{trans-2-[(cyclopropylmethyl)amino]cyclopropyl}-phenyl)-4-(3-methyl-5-oxo-4,5-dihydro-1H-pyrazol-1-yl)benzamide]
< 0.1	> 10	> 10	CS(=O)(=O)c1ccc(C(=O)Nc2ccc([C@@H]3C[C@H]3NCC3CC3)cc2)cc1 (relative stereo) [Example 87, N-(4-{trans-2-[(cyclopropylmethyl)amino]cyclopropyl}-phenyl)-4-(methylsulfonyl)-benzamide]
< 0.1	> 10	> 10	NS(=O)(=O)c1ccc(C(=O)Nc2ccc([C@@H]3C[C@H]3NCC3CC3)cc2)cc1 (relative stereo) [Example 88, N-(4-{trans-2-[(cyclopropylmethyl)amino]cyclopropyl}-phenyl)-4-sulfamoylbenzamide]
0.1	> 10	> 10	O=C(Nc1ccc([C@@H]2C[C@H]2NCC2CC2)cc1)c1ccc(C2CCCCC2)cc1 (relative stereo) [Example 89, 4-cyclohexyl-N-(4-{trans-2-[(cyclopropylmethyl)amino]cyclopropyl}-phenyl)benzamide]
< 0.1	> 10	> 10	O=C(Nc1ccc([C@@H]2C[C@H]2NCC2CC2)cc1)c1ccc2ncsc2c1 (relative stereo) [Example 90, N-(4-{trans-2-[(cyclopropylmethyl)amino]cyclopropyl}-phenyl)-1,3-benzothiazole-6-carboxamide]
< 0.1	> 10	> 10	CS(=O)(=O)c1cccc(C(=O)Nc2ccc([C@@H]3C[C@H]3NCC3CC3)cc2)c1 (relative stereo) [Example 91, N-(4-{trans-2-[(cyclopropylmethyl)amino]cyclopropyl}-phenyl)-3-(methylsulfonyl)-benzamide]
< 0.1	7.9	> 10	O=C(Nc1ccc([C@@H]2C[C@H]2NCC2CC2)cc1)c1ccc(-n2ccnc2)cc1 (relative stereo) [Example 92, N-(4-{trans-2-[(cyclopropylmethyl)-amino]cyclopropyl}-phenyl)-4-(1H-imidazol-1-yl)benzamide]
< 0.1	> 10	> 10	O=C(Nc1ccc([C@@H]2C[C@H]2NCC2CC2)cc1)c1cc(-c2ccccc2)on1 (relative stereo) [Example 93, N-(4-{trans-2-[(cyclopropylmethyl)-amino]cyclopropyl}-phenyl)-5-phenyl-1,2-oxazole-3-carboxamide]
< 0.1	> 10	> 10	O=C(Nc1ccc([C@@H]2C[C@H]2NCC2CC2)cc1)c1ccc(-n2cccn2)cc1 (relative stereo) [Example 94, N-(4-{trans-2-[(cyclopropylmethyl)-amino]cyclopropyl}-phenyl)-4-(1H-pyrazol-1-yl)benzamide]

Source: patent US9682925B2, “Cyclopropaneamine compound” (TAKEDA PHARMACEUTICAL COMPANY LIMITED, priority 2011, dated 2017)
